Reference: patent US5420289A, “Substituted indole-, indene-, pyranoindole- and tetrahydrocarbazole-alkanoic acid derivatives as inhibitors of PLA2 and lipoxygenase” (American Home Products Corporation, priority 1993, dated 1995)

Key:
[1] = test system: synthesis of LTB4 by rat glycogen-elicited polymorphonuclear leukocytes (PMN); assay: inhibition of LTB4 synthesis by rat glycogen-elicited PMN (Example 72); assay type: cell-based, rat (female Wistar); conditions: Leukocyte, at 10 mM, negative number denotes potentiation
Procedure, shortened: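 Peritoneal PMNs from female Wistar rats 18-24 h after i.p. glycogen, 2.0×10^7 cells/mL in HBSS with Ca/Mg and 10 mM L-cysteine; compound preincubated 10 min at 37° C, then A23187 […] added for 10 min. Supernatant [3H]-LTB4 quantified by radio-HPLC versus drug-free stimulated cells; percent inhibition or IC50.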

[2] = test system: cyclooxygenase (PGE2 synthesis) in rat polymorphonuclear leukocytes (PMN); assay: inhibition of PGE2 synthesis (cyclooxygenase) by rat glycogen-elicited PMN (Example 73); assay type: cell-based, rat (female Wistar); conditions: Leukocyte, at 10 mM, * (negative) denotes a potentiation, read-out: % Inhibition (PGE2 synthesis)
Procedure, shortened: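 Glycogen-elicited peritoneal PMNs from female Wistar rats, 2.0×10^7 cells/mL in HBSS with Ca/Mg and 10 mM L-cysteine, preincubated with drug 10 min at 37° C. Stimulated 10 min with A23187 plus [3H]-AA and unlabeled AA (stocks 1 mM); supernatant [3H]-PGE2 measured by reverse-phase HPLC co-chromatographed with reference standard.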

[3] = test system: lipoxygenase pathway (LTC4); assay: in vivo murine zymosan peritonitis assay, LTC4 (Example 76); set-up: species or system mouse (male CD-1); conditions: 50 mg/kg p.o.; negative values denote potentiation
Procedure: (§1) The compounds of the invention are evaluated for their ability to inhibit the lipoxygenase and/or cyclooxygenase pathways of arachidonic acid metabolism in the in vivo murine zymosan peritonitis assay.
(§2) This assay is carried out as follows:
(§3) Male CD-1 mice (8 weeks old) are placed in plastic boxes in groups of six. Animals are injected with 1 mL i.p. of either 1% zymosan in pyrogen free 0.9% saline or saline (unstimulated control). Compounds are dosed orally 1 hour prior to zymosan injection. Twenty minutes after zymosan injection, the mice are asphyxiated by CO2 inhalation and tile peritoneal cavity is lavaged with 2 mL ice cold Hanks Balanced Salt Solution (HBSS) without CaCl2, MgSO4 ·7H2 O and MgCl2 ·6H2 O. Peritoneal lavage fluid from each mouse is removed by syringe and placed in 5 mL plastic test tubes put on ice and volume is noted. […]
(§4) The total metabolite level in lavage fluid/mouse is calculated and the significance is determined by a one-way analysis of variance with LSD comparisons to control (p<0.05). Drug effects are expressed as a percent change from control values.

[4] = test system: cyclooxygenase pathway (6-keto-PGF1a); assay: in vivo murine zymosan peritonitis assay, 6-keto-PGF1a (Example 76); set-up: species or system mouse (male CD-1); conditions: 50 mg/kg p.o.; negative values denote potentiation
Procedure: as §1, §2, §3, §4

carrageenan paw edema = assay: rat carrageenan paw edema assay (Example 78); assay type: in vivo, rat (male Sprague-Dawley); conditions: 50 mg/kg peroral; 3 hours after carrageenan
Procedure: The compounds of the invention are further tested in the rat carrageenan paw edema assay to determine their ability to inhibit the acute inflammatory response.
This assay is carried out as follows: 140-180 g Male Sprague-Dawley rats, in groups of 6 animals are injected subcutaneously in the right paw with 0.1 mL of 1% carrageenan at zero time. Mercury plethysmographic readings (mL) of the paw are made at zero time and 3 hours later. Test compounds are suspended or dissolved in 0.5% methylcellulose and given perorally 1 hour prior to carrageenan administration.
The increase in paw volume (edema in mL) produced by the carrageenan is measured. Paw edema is calculated (3 hour volume minus zero time volume), and percent inhibition of edema is determined. Unpaired Student's t-test is used to determine statistical significance.

SMILES | inhibition at 10000 µM [1] [%] | inhibition at 10000 µM [2] [%] | % Inhibition LTC4 [3] [%] | % Inhibition 6-keto-PGF [4] [%] | % Inhibition 50 mg/kg (peroral) (carrageenan paw edema)
CCC1(CC(=O)O)CCCc2c1[nH]c1ccc(OCc3ccc4ccccc4n3)cc21 (stereo not shown) [Example 11, 1-Ethyl-2,3,4,9-tetrahydro-6-(2-quinolinylmethoxy)-1H-carbazole-1-acetic acid] | 95 | 80 | -49 | 47 | +1%
CC1(CC(=O)O)OCCc2c1[nH]c1ccc(OCc3ccc4ccccc4n3)cc21 (stereo not shown) [Example 10, 1-Methyl-1,3,4,9-tetrahydro-6-(2-quinolinylmethoxy)pyrano[3.4-b]indole-1-acetic acid] | 91 | -41 | 11 | -5 | 48%
